One assay deals with HL60 (leukemia). In words: In vitro cytotoxic activity (MTT) assay, HL60. The format is cell-based. Conditions: Homo sapiens, HL-60, 96 hours exposure, read-out: Cytotoxicity activity IC50 (50% inhibition of cell proliferation). On the procedure:
(§1) Compounds 1-16 were screened for their in vitro cytotoxic activity utilizing a 3-(4,5-dimethyl-thiazol-2-yl)-2,5-diphenyltetrazolium bromide (MTT) assay against selected cancer human cell lines consisting of PC3 (prostate), HCT116 (colon), A375 (melanoma), H1299 (lung), MIAPaCa-2 (pancreas), HL60 (leukemia), MCF7 (breast), MDA-MB-231 (breast) (T. Mosmann, J. Immunol. Meth., 1983, 65, 55-63). The cells were cultured at 37° C. in RMPI1640 medium supplemented with 10% fetal bovine serum, 50 IU/mL penicillin, and 50 μg/mL streptomycin in a 5% CO2 incubator. All cells were sub-cultured 3 times/week by trypsinisation. Viable cells were seeded and allowed to adhere for 12 hours before a test drug was added in 96-well plates at an initial density of 1.0×10^5 cells/mL. Tumor cell lines were separately exposed to various concentrations of the tested compounds followed by incubation at a temperature of 37° C. during 96 hours inside a medium of fresh RMPI 1640. Cells were subsequently incubated at 37° C. using MTT at 0.5 mg/mL during 4 hours. After removal of supernatant, formazan crystals were dissolved in isopropanol and the optical density was measured at 570 nm. CX-4945 was used as a positive control.

The target in assay [1] is T1, recombinant human CK2 (holoenzyme) (Homo sapiens, UniProt P68400).
T1 construct: purchased Millipore
T1 sequence (P68400 whole entry): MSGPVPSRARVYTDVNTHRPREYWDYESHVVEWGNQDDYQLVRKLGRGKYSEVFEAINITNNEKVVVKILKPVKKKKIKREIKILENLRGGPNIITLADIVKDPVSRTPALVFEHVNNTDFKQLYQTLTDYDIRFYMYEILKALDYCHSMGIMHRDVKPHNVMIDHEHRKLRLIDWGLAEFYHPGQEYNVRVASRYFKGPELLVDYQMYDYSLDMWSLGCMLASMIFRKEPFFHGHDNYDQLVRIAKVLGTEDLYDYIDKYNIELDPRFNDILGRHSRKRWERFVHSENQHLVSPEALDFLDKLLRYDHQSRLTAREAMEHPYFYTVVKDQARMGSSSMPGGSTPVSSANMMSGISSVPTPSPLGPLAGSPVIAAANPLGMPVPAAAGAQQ
T1 sequence (P67870 whole entry partner): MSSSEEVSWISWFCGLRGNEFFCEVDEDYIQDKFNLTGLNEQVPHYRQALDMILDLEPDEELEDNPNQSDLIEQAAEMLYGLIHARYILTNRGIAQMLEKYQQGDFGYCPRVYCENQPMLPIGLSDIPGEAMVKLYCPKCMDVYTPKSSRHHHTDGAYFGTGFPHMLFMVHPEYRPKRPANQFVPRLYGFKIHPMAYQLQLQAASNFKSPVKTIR
In words: CK2 Kinase Assay (33P-ATP, filter plate). The format is biochemical. The settings on record: final ATP concentration 15 μM, 10 min at 30° C.; read-out: protein kinase CK2 IC50. As to the method:
CK2 Kinase Assay was conducted using the protocol as described in Pierre F. et al; J. Med. Chem. 2011, 54, 635-654. The tested compounds in aqueous solution were added at a volume of 10 μL to a reaction mixture comprising 10 μL of assay dilution buffer (ADB; 20 mM MOPS, pH 7.2, 25 mM β-glycerol phosphate, 5 mM EGTA, 1 mM sodium orthovanadate, and 1 mM dithiothreitol), 10 μL of substrate peptide (RRRDDDSDDD, dissolved in ADB at a concentration of 1 mM), 10 μL of recombinant human CK2 (RRββ-holoenzyme, 25 ng dissolved in ADB; Millipore). Reactions were initiated by the addition of 10 μL of ATP solution (90% 75 mMMgCl2, 75 μM ATP (final ATP concentration: 15 μM) dissolved in ADB; 10% [γ-33P] ATP (stock 1 mCi/100 μL; 3000 Ci/mmol (Perkin-Elmer) and maintained for 10 min at 30° C. The reactions were quenched with 100 μL of 0.75% phosphoric acid and then transferred to and filtered through a phosphor cellulose filter plate (Millipore). After washing each well five times with 0.75% phosphoric acid, the plate was dried under vacuum for 5 min and, following the addition of 15 μL of scintillation fluid to each well, the residual radioactivity was measured using a Wallac […] counter. The IC50 values were derived from eight concentrations of test inhibitors.

The test system of the next assay is MCF7 (breast). The assay can be described thus: In vitro cytotoxic activity (MTT) assay, MCF7. It is filed as cell-based. Conditions: Homo sapiens, 96 hours exposure, read-out: Cytotoxicity activity IC50 (50% inhibition of cell proliferation). On the procedure:
as §1

For the next assay, the system named is A375 (melanoma). In words: In vitro cytotoxic activity (MTT) assay, A375. Conditions: Homo sapiens, A-375, 96 hours exposure, read-out: Cytotoxicity activity IC50 (50% inhibition of cell proliferation). It is filed as cell-based. As to the method: as §1
The test system of a further assay is HCT116 (colon). The assay can be described thus: In vitro cytotoxic activity (MTT) assay, HCT116. It is filed as cell-based. The settings on record: Homo sapiens, HCT-116, 96 hours exposure, read-out: Cytotoxicity activity IC50 (50% inhibition of cell proliferation). As to the method:
as §1

For another assay, the system named is MDA-MB-231 (breast). The assay can be described thus: In vitro cytotoxic activity (MTT) assay, MDA-MB-231. The format is cell-based. Conditions: Homo sapiens, 96 hours exposure, read-out: Cytotoxicity activity IC50 (50% inhibition of cell proliferation). On the procedure:
as §1

The next assay has as its system H1299 (lung). In words: In vitro cytotoxic activity (MTT) assay, H1299. The format is cell-based. Conditions: Homo sapiens, NCI-H1299, 96 hours exposure, read-out: Cytotoxicity activity IC50 (50% inhibition of cell proliferation). On the procedure: as §1
The subject of a further assay is MIAPaCa-2 (pancreas). The assay can be described thus: In vitro cytotoxic activity (MTT) assay, MIAPaCa-2. It is filed as cell-based. Conditions: Homo sapiens, MIA PaCa-2, 96 hours exposure, read-out: Cytotoxicity activity IC50 (50% inhibition of cell proliferation). On the procedure:
as §1

Another assay deals with PC3 (prostate). The assay can be described thus: In vitro cytotoxic activity (MTT) assay, PC3. The format is cell-based. Conditions: Homo sapiens, 96 hours exposure, read-out: Cytotoxicity activity IC50 (50% inhibition of cell proliferation). On the procedure: as §1

The structures appear in SMILES notation.

The record followed here is patent US12180208B1, “Pyrazolo[1,5-c]pyrido[3,4-e]pyrimidines as CK2 inhibitors” (KING FAISAL UNIVERSITY, priority 2024, dated 2024).

On to `O=C(O)c1cc2c3cnccc3nc(Nc3cccc(Cl)c3)n2n1` [Compound 1, 6-((3-chlorophenyl)amino)pyrazolo[1,5-c]pyrido[3,4-e]pyrimidine-9-carboxylic Acid], for which the IC50 in the assay on HL60 (leukemia) is 5.1 µM; in [1] it was 0.055 µM; in the assay on MCF7 (breast) it was 5.6 µM; with A375 (melanoma), 4.2 µM; in the assay with HCT116 (colon) it was 3.1 µM; with MDA-MB-231 (breast), 4.9 µM. The figures for the IC50 in the assay with H1299 (lung), in the assay on MIAPaCa-2 (pancreas) and with PC3 (prostate) were 2.5 µM, 1.7 µM and 2.3 µM, respectively.
